What is called IC50 is the concentration that gives 50% inhibition.

The target in one assay is Carbonic anhydrase 2 (Homo sapiens, UniProt P00918). The assay can be described thus: In Vitro Inhibition Assay. Here is the method:
(§1) For the inhibition studies of sulfonamide, different concentrations of these compounds were added to the enzyme. Activity percentage values of CA for different concentrations of each sulfonamide were determined by regression analysis usingMicrosoft Office 2000 Excel (New York, NY). CA enzyme activity without a sulfonamide solution was accepted to be 100%.

For another assay, the target named is Carbonic anhydrase 1 (Homo sapiens, UniProt P00915). The assay can be described thus: In Vitro Inhibition Assay. As for the experimental part:
as §1

Structures are written as SMILES.

Carbonic anhydrase 1, sequence (P00915 whole entry): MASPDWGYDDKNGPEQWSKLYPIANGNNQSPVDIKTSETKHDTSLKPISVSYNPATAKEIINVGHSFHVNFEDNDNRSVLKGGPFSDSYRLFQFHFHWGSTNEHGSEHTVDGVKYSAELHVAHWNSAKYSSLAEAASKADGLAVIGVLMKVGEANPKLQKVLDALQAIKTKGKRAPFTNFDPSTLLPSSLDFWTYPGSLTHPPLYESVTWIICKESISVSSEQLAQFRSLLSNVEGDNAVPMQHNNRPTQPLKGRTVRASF

With `CN1C(=O)C(=CNc2ccc(S(N)(=O)=O)cc2)C(=O)N(C)C1=O` [4-((1,3-Dimethyl-2,4,6-trioxo-tetrahydropyrimidin-5(6H)-ylidene)methylamino)benzene-sulfonamide (2e)], the IC50 came to 2.52 µM at Carbonic anhydrase 2 and 5.2 µM at Carbonic anhydrase 1.

Turning to `NS(=O)(=O)c1ccc(NC=C2C(=O)c3ccccc3C2=O)cc1` [4-((1,3-Dioxo-1H-inden-2(3H)-ylidene)methylamino)benzene-sulfonamide (2g)], the IC50 against Carbonic anhydrase 2 was 3.36 µM; on Carbonic anhydrase 1, 3.19 µM.

In the case of `CC1(C)OC(=O)C(=CNc2ccc(S(N)(=O)=O)cc2)C(=O)O1` [4-((2,2-Dimethyl-4,6-dioxo-1,3-dioxan-5-ylidene)methylamino)benzene-sulfonamide (2c)], the results for the IC50 against Carbonic anhydrase 2 and against Carbonic anhydrase 1 were 18.6 µM and 6.56 µM, respectively.

On to `NS(=O)(=O)c1ccc(NC=C2C(=O)NC(=O)NC2=O)cc1` [4-((2,4,6-Trioxo-tetrahydropyrimidin-5(6H)-ylidene)methylamino)benzene-sulfonamide (2f)], for which the figures for the IC50 against Carbonic anhydrase 2 and on Carbonic anhydrase 1 were 9.92 µM and 10.9 µM, respectively.

Take `NS(=O)(=O)c1ccc(NC=C2C(=O)CCC2=O)cc1` [4-((2,5-Dioxocyclopentylidene)methylamino)benzenesulfonamide (2h)]: the IC50 came to 3.36 µM against Carbonic anhydrase 2 and 4.8 µM against Carbonic anhydrase 1.

On to `NS(=O)(=O)c1ccc(NC=C2C(=O)CCCC2=O)cc1` [4-((2,6-Dioxocyclohexylidene)methylamino)benzenesulfonamide (2a)], for which the results for the IC50 against Carbonic anhydrase 2 and on Carbonic anhydrase 1 were 4.93 µM and 4.25 µM, respectively.

Take `CC1(C)CC(=O)C(=CNc2ccc(S(N)(=O)=O)cc2)C(=O)C1` [4-((4,4-Dimethyl-2,6-dioxocyclohexylidene)methylamino)benzene-sulfonamide (2b)]: the IC50 on Carbonic anhydrase 2 came out at 6.41 µM; against Carbonic anhydrase 1 it was 2.12 µM.

In the case of `NS(=O)(=O)c1ccc(NC=C2C(=O)CC(c3ccco3)CC2=O)cc1` (stereo unspecified) [4-((4-(Furan-2-yl)-2,6-dioxocyclohexylidene)methylamino)benzenesulfonamide (2d)], the results for the IC50 against Carbonic anhydrase 2 and against Carbonic anhydrase 1 were 7.21 µM and 8.61 µM, respectively.

(Values after BindingDB's records for doi:10.3109/14756366.2012.757603 (Sakarya University, 2014).)
